In PubChem BioAssay AID2060909 (Molecular Pharmacology Branch, DTP, NCI, 2025):

Test system: 362531-283-R-J2-PDC complex spheroid viability
Experiment: Anticancer human tumor 362531-283-R-J2-PDC patient-derived colon adenocarcinoma cell line growth inhibition [RAS]
Settings: for IC50: curve of first compound; for viability, T/C: stronger effect = lower value
Outline: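 Multi-cell-type spheroids: tumor cells plus HUVEC endothelial cells and mesenchymal stem cells. RAS-pathway inhibitors were combined with targeted agents, each dosed in half-log steps down from clinical Cmax, or from 10 microM when Cmax was unknown.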

[1] = second compound 0.00316 µM, first compound 0.00316 µM
[2] = second compound 0.00316 µM, first compound 0.01 µM
[3] = second compound 0.00316 µM, first compound 0.0316 µM
[4] = second compound 0.00316 µM, first compound 0.1 µM
[5] = second compound 0.00316 µM, first compound 0.316 µM
[6] = second compound 0.00316 µM, first compound 1 µM
[7] = second compound 0.01 µM, first compound 0.00316 µM
[8] = second compound 0.01 µM, first compound 0.01 µM
[9] = second compound 0.01 µM, first compound 0.0316 µM
[10] = second compound 0.01 µM, first compound 0.1 µM
[11] = second compound 0.01 µM, first compound 0.316 µM
[12] = second compound 0.01 µM, first compound 1 µM
[13] = second compound 0.0316 µM, first compound 0.00316 µM
[14] = second compound 0.0316 µM, first compound 0.01 µM
[15] = second compound 0.0316 µM, first compound 0.0316 µM
[16] = second compound 0.0316 µM, first compound 0.1 µM
[17] = second compound 0.0316 µM, first compound 0.316 µM
[18] = second compound 0.0316 µM, first compound 1 µM
[19] = second compound 0.1 µM, first compound 0.00316 µM
[20] = second compound 0.1 µM, first compound 0.01 µM
[21] = second compound 0.1 µM, first compound 0.0316 µM
[22] = second compound 0.1 µM, first compound 0.1 µM
[23] = second compound 0.1 µM, first compound 0.316 µM
[24] = second compound 0.1 µM, first compound 1 µM
[25] = second compound 0.316 µM, first compound 0.00316 µM
[26] = second compound 0.316 µM, first compound 0.01 µM
[27] = second compound 0.316 µM, first compound 0.0316 µM
[28] = second compound 0.316 µM, first compound 0.1 µM
[29] = second compound 0.316 µM, first compound 0.316 µM
[30] = second compound 0.316 µM, first compound 1 µM
[31] = second compound 1 µM, first compound 0.00316 µM
[32] = second compound 1 µM, first compound 0.01 µM
[33] = second compound 1 µM, first compound 0.0316 µM
[34] = second compound 1 µM, first compound 0.1 µM
[35] = second compound 1 µM, first compound 0.316 µM
[36] = second compound 1 µM, first compound 1 µM
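Note: spheroids exposed to the agents for 7 days before readout.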
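Throughout, for viability, T/C: luminescence viability as percent of DMSO vehicle control wells.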

CC1(C)CCC(Nc2ncc(C(F)(F)F)c(-c3c[nH]c4c(P(C)(C)=O)c(C#N)ccc34)n2)CN1 (stereo unspecified) + C#Cc1c(F)ccc2cc(O)cc(-c3ncc4c(N5CC6CCC(C5)N6)nc(OCC56CCCN5CC(F)C6)nc4c3F)c12
IC50 (second compound 0.0316 µM): > 300 nM | IC50 (second compound 0.1 µM): > 300 nM | IC50 (second compound 0.316 µM): > 300 nM | IC50 (second compound 1 µM): > 300 nM | IC50 (second compound 3.16 µM): > 300 nM | IC50 (second compound 10 µM): > 300 nM | viability, T/C (second compound 0.0316 µM, first compound 0.000949 µM): 97% | viability, T/C (second compound 0.0316 µM, first compound 0.003 µM): 95.6% | viability, T/C (second compound 0.0316 µM, first compound 0.00949 µM): 98.5% | viability, T/C (second compound 0.0316 µM, first compound 0.03 µM): 92.3% | viability, T/C (second compound 0.0316 µM, first compound 0.0949 µM): 107% | viability, T/C (second compound 0.0316 µM, first compound 0.3 µM): 114% | viability, T/C (second compound 0.1 µM, first compound 0.000949 µM): 107% | viability, T/C (second compound 0.1 µM, first compound 0.003 µM): 85.5% | viability, T/C (second compound 0.1 µM, first compound 0.00949 µM): 90.4% | viability, T/C (second compound 0.1 µM, first compound 0.03 µM): 95.8% | viability, T/C (second compound 0.1 µM, first compound 0.0949 µM): 101% | viability, T/C (second compound 0.1 µM, first compound 0.3 µM): 99.5% | viability, T/C (second compound 0.316 µM, first compound 0.000949 µM): 95.7% | viability, T/C (second compound 0.316 µM, first compound 0.003 µM): 88.2% | viability, T/C (second compound 0.316 µM, first compound 0.00949 µM): 88.8% | viability, T/C (second compound 0.316 µM, first compound 0.03 µM): 90.2% | viability, T/C (second compound 0.316 µM, first compound 0.0949 µM): 97.4% | viability, T/C (second compound 0.316 µM, first compound 0.3 µM): 93.8% | viability, T/C (second compound 1 µM, first compound 0.000949 µM): 80.5% | viability, T/C (second compound 1 µM, first compound 0.003 µM): 89.3% | viability, T/C (second compound 1 µM, first compound 0.00949 µM): 83.4% | viability, T/C (second compound 1 µM, first compound 0.03 µM): 93.5% | viability, T/C (second compound 1 µM, first compound 0.0949 µM): 80.9% | viability, T/C (second compound 1 µM, first compound 0.3 µM): 82.9% | viability, T/C (second compound 3.16 µM, first compound 0.000949 µM): 68.4% | viability, T/C (second compound 3.16 µM, first compound 0.003 µM): 65.9% | viability, T/C (second compound 3.16 µM, first compound 0.00949 µM): 70.9% | viability, T/C (second compound 3.16 µM, first compound 0.03 µM): 74% | viability, T/C (second compound 3.16 µM, first compound 0.0949 µM): 61.2% | viability, T/C (second compound 3.16 µM, first compound 0.3 µM): 71.1% | viability, T/C (second compound 10 µM, first compound 0.000949 µM): 56.4% | viability, T/C (second compound 10 µM, first compound 0.003 µM): 49.7% | viability, T/C (second compound 10 µM, first compound 0.00949 µM): 54.8% | viability, T/C (second compound 10 µM, first compound 0.03 µM): 55% | viability, T/C (second compound 10 µM, first compound 0.0949 µM): 41.4% | viability, T/C (second compound 10 µM, first compound 0.3 µM): 54.3%

C=CC(=O)Nc1cc(Nc2nccc(-c3cn(C)c4ccccc34)n2)c(OC)cc1N(C)CCN(C)C + C=CC(=O)N1CCN(c2nc(OCC3CCCN3C)nc3c(F)c(-c4nc(N)cc(C)c4C(F)(F)F)c(Cl)cc23)C(C)C1
IC50 (second compound 0.00316 µM): > 1000 nM | IC50 (second compound 0.01 µM): > 1000 nM | IC50 (second compound 0.0316 µM): > 1000 nM | IC50 (second compound 0.1 µM): > 1000 nM | IC50 (second compound 0.316 µM): > 1000 nM | IC50 (second compound 1 µM): > 1000 nM | viability, T/C [1]: 103% | viability, T/C [2]: 97.4% | viability, T/C [3]: 100% | viability, T/C [4]: 95.6% | viability, T/C [5]: 89% | viability, T/C [6]: 69.8% | viability, T/C [7]: 107% | viability, T/C [8]: 100% | viability, T/C [9]: 104% | viability, T/C [10]: 98.3% | viability, T/C [11]: 96.9% | viability, T/C [12]: 56% | viability, T/C [13]: 104% | viability, T/C [14]: 99.2% | viability, T/C [15]: 98.3% | viability, T/C [16]: 94.9% | viability, T/C [17]: 93.5% | viability, T/C [18]: 65.5% | viability, T/C [19]: 103% | viability, T/C [20]: 104% | viability, T/C [21]: 101% | viability, T/C [22]: 96.8% | viability, T/C [23]: 101% | viability, T/C [24]: 62.8% | viability, T/C [25]: 93.8% | viability, T/C [26]: 96% | viability, T/C [27]: 98.1% | viability, T/C [28]: 94.8% | viability, T/C [29]: 96.2% | viability, T/C [30]: 54.9% | viability, T/C [31]: 105% | viability, T/C [32]: 95.8% | viability, T/C [33]: 97.4% | viability, T/C [34]: 103% | viability, T/C [35]: 86.5% | viability, T/C [36]: 70.7%

O=C(c1ccc(F)c(F)c1Nc1ccc(I)cc1F)N1CC(O)([C@@H]2CCCCN2)C1 + C=CC(=O)N1CCN(c2nc(OCC3CCCN3C)nc3c(F)c(-c4nc(N)cc(C)c4C(F)(F)F)c(Cl)cc23)C(C)C1
IC50 (second compound 0.00316 µM): 363 nM | IC50 (second compound 0.01 µM): 399 nM | IC50 (second compound 0.0316 µM): 306 nM | IC50 (second compound 0.1 µM): 368 nM | IC50 (second compound 0.316 µM): 377 nM | IC50 (second compound 1 µM): 349 nM | viability, T/C [1]: 94.4% | viability, T/C [2]: 111% | viability, T/C [3]: 93.1% | viability, T/C [4]: 84.8% | viability, T/C [5]: 56.6% | viability, T/C [6]: 4.22% | viability, T/C [7]: 100% | viability, T/C [8]: 95.3% | viability, T/C [9]: 97% | viability, T/C [10]: 83.9% | viability, T/C [11]: 61.4% | viability, T/C [12]: 6.87% | viability, T/C [13]: 103% | viability, T/C [14]: 99.2% | viability, T/C [15]: 95.1% | viability, T/C [16]: 80.8% | viability, T/C [17]: 48.9% | viability, T/C [18]: 10.1% | viability, T/C [19]: 101% | viability, T/C [20]: 97.5% | viability, T/C [21]: 88.8% | viability, T/C [22]: 79.6% | viability, T/C [23]: 59.6% | viability, T/C [24]: 4.51% | viability, T/C [25]: 99.7% | viability, T/C [26]: 97.6% | viability, T/C [27]: 91.9% | viability, T/C [28]: 81.9% | viability, T/C [29]: 58.3% | viability, T/C [30]: 6.58% | viability, T/C [31]: 101% | viability, T/C [32]: 94.7% | viability, T/C [33]: 81.1% | viability, T/C [34]: 79.7% | viability, T/C [35]: 55.5% | viability, T/C [36]: 8.33%
